Measurements taken from US20180327364A1, “MTOR INHIBITORS AND METHODS OF USE THEREOF” (Brandeis University, priority 2015, published 2018).

What was measured:
Assay type in all cases: cell-based
[1] = system: firefly luciferase; experiment: Luciferase assay in stably transduced luciferase HEK-293T cells; conditions: HEK-293T luciferase-eDHFR and wild-type luciferase cells; 200 TMP-B3A (unit not given) vs DMSO
[2] = system: firefly luciferase; experiment: as above; conditions: for luciferase levels / activity, inhibitor alone: 100 μg/mL cycloheximide or 6 μM bortezomib; for wild type luciferase signal: HEK-293T cells expressing HA-luciferase, 100 μM, 4 h
Experimental: Firefly luciferase and firefly luciferase-eDHFR were cloned into pBABE-puro vector which was a gift from Hartmut Land & Jay Morgenstern & Bob Weinberg (Addgene plasmid #1764). pBABE-puro-luciferase was co-transfected with VSV-G into GP2-293 cells (Retro-X Universal Packaging System, Clonetech, Mountain View, Calif.) with TransIT-2020 (MirusBio) according to TransIT-2020's manufacture's protocol. After 48 h, viral supernatant was harvested, spun down, filtered with a […] syringe filter, and added to HEK-293T supplemented with 8 μg/mL polybrene. After 4 h of infection, the media was replaced with fresh media. 48 h later, media was replaced with media containing 3 μg/mL puromycin. Media was replaced with fresh media containing puromycin every 3-4 days. After 2 weeks of puromycin selection, the cells were grown out from single cell colonies and screened for luciferase expression.
Stably transduced luciferase HEK-293T cells were plated in 96-well plates 24 h prior to treatment with 100 μM of Cbz-B3A, amine-B3A, acetyl-B3A, and Cbz-acetyl. After 4 h, cells were harvested and measured with Luciferase Assay System with Reporter Lysis Buffer from Promega according to the manufacturer's protocol. Before the addition of luciferin, protein concentration was measured by removing 2 μl of lysate from each well and adding it to diluted Bio-Rad Protein Assay Dye Reagent Concentrate, and the absorbance was measured at OD595. The protein concentration was used to normalize luciferase signal. For translation assays, cells were pretreated for 15 min with 100 μg/mL cycloheximide or 6 μM bortezomib. For the recombinant luciferase assay, Quantilum Recombinant Luciferase (Promega) was diluted 1:250,000 in reporter lysis buffer with 1 mg/mL BSA then mixed 1:1 with 200 μM compound in the same buffer for a final dilution of 1:500,000 and 100 μM compound in 20 μL. This was incubated for 10 min at room temperature then measured with Luciferase Assay System with Reporter Lysis Buffer from Promega according to the manufacturer's protocol.

[3] = system: protein translation in HEK-293T cells; experiment: 35S-methionine/cysteine incorporation translation assay; conditions: saturating concentration (Cbz-B3A 10 μM); 4 h treatment then 1 h labeling
Experimental: 80,000 cells/well of HEK-293T cells were plated into 24 well plates 24 h before the assay. Cells were treated with indicated concentration of compound for 4 h. After 4 h, the media was removed and replaced with DMEM without methionine and cysteine (Lifetechnologies) supplemented with 0.2 mCi/mL EXPRESS [^35S] protein labeling mix (PerkinElmer), 10% dialyzed FBS (Pierce), 1× glutaMax (Gibco), 100 U/mL penicillin 100 μg/mL streptomycin (Gibco), 1 mM sodium pyruvate (Lifetechnologies), and the indicated concentration of compound. After 1 h, this media was removed, cells were washed with ice cold PBS, and lysed with low deoxycholate RIPA buffer (10 mM Tris-Cl, 1% NP-40, 0.5% Na Deoxycholate, 0.1% SDS, 140 mM NaCl, 1 mM EDTA, 500 μM EGTA, 1× Roche Complete protease inhibitors, 1:100 Benzonase, and at pH 8.0). Lysate was centrifuged at maximum speed for 20 m at 4° C. The concentration was measured by Bradford assay. 10 μg of lysate was added to […] ice cold 1 mg/mL BSA with 0.02% Na Azide. 1 mL of ice cold 10% TCA was added, the solutions were mixed and incubated on ice for 0.5 h. These mixtures were vacuum filtered onto GF/C Whatman glass microfiber filters. The filters were washed with 2×5 mL of 10% TCA, then 2×3 mL ethanol. The filters were then dried for a 0.5 h. The filters were placed into scintillation vials with 5 mL of scintillation fluid and read on a scintillation counter.

[4] = system: 4EBP1 phosphorylation by mTORC1; experiment: 4EBP1 phosphorylation immunoblot in HEK-293T cells
Experimental: (§1) Quantification of western blots was performed with ImageJ. Cells were lysed in RIPA buffer (1% NP-40, 1% NaDeoxycholate, 0.1% SDS, 10 mM TrisCl, 10 mM β-glycerophosphate, 10 mM Na pyrophosphate, 50 mM NaF, 200 μM Na vanadate, 1 mM EDTA, 500 μM EGTA, 1% benzonase, and supplemented with complete (Roche Diagnostics) protease inhibitors).

[5] = system: eIF2α; experiment: eIF2α phosphorylation immunoblot in HEK-293T cells; conditions: 1 h; tunicamycin 5 μg/mL, thapsigargin 500 nM; compared with vehicle
Experimental: as §1

COc1cc(Cc2cnc(N)nc2N)cc(OC)c1OCC(=O)NCCCCCCNC(=O)[C@H](CCCN/C(=N\C(=O)OC(C)(C)C)NC(=O)OC(C)(C)C)NC(=O)OC(C)(C)C [TMP-B3A]
luciferase signal [1]: reduced luciferase signal to similar levels in both luciferase-eDHFR and wild-type luciferase cells

CC(C)C[C@H](NC(=O)[C@H](Cc1ccccc1)NC(=O)c1cnccn1)B(O)O [Bortezomib, reference compound]
luciferase levels / activity, inhibitor alone [2]: decreased luciferase levels

CO[C@H]1C[C@@H]2CC[C@@H](C)[C@@](O)(O2)C(=O)C(=O)N2CCCC[C@H]2C(=O)O[C@H]([C@H](C)C[C@@H]2CC[C@@H](O)[C@H](OC)C2)CC(=O)[C@H](C)/C=C(\C)[C@@H](O)[C@@H](OC)C(=O)[C@H](C)C[C@H](C)/C=C/C=C/C=C/1C [rapamycin, reference compound]
maximal inhibition of translation (35S-methionine/cysteine incorporation) [3]: 35%

CC(C)(C)OC(=O)/N=C(/NCCCC(NC(=O)OC(C)(C)C)C(=O)NCCCCNC(=O)OCc1ccccc1)NC(=O)OC(C)(C)C (centres unmarked) [JX-8]
4EBP1 phosphorylation, comparison with Cbz-B3A ([4]; 20 μM, 3 h, anti-4EBP1 western blot): more potent mTOR inhibitor than CB3A

CC(=O)NCCCCCCNC(=O)[C@H](CCCN/C(=N\C(=O)OC(C)(C)C)NC(=O)OC(C)(C)C)NC(=O)OC(C)(C)C [acetyl-B3A]
wild type luciferase signal [2]: decreased the wild type luciferase signal

CC(C)(C)OC(=O)/N=C(\NCCC[C@H](NC(=O)OC(C)(C)C)C(=O)NCCCCCCN)NC(=O)OC(C)(C)C [Amine-B3A]
wild type luciferase signal [2]: decreased the wild type luciferase signal

C[C@@H]1C[C@@H]([C@H](O)CC2CC(=O)NC(=O)C2)C(=O)[C@@H](C)C1 [cycloheximide, reference compound]
luciferase levels / activity, inhibitor alone [2]: luciferase activity decreased

C/C=C(/C)C(=O)O[C@H]1C(C)=C2[C@H]([C@@H]1OC(=O)CCCCCCC)[C@@](C)(OC(C)=O)C[C@H](OC(=O)CCC)[C@@]1(O)[C@H]2OC(=O)[C@@]1(C)O [thapsigargin]
eIF2α phosphorylation [5]: increased phosphorylation of eIF2α

CC(=O)NCCCCCCNC(=O)OCc1ccccc1 [Cbz-acetyl]
wild type luciferase signal [2]: not reduced | 4EBP1 phosphorylation (hyper- vs hypo-phosphorylated band) ([4]; Cbz-B3A 10 μM, Cbz-acetyl 10 μM, rapamycin 20 nM, 4 h): No shift

tunicamycin
eIF2α phosphorylation [5]: increased phosphorylation of eIF2α
